Values quoted from earlier work as cited in patent US20260256788A1, “COMPOSITIONS COMPRISING MELATONIN, 5-FLUOROURACIL AND DIMETHYL SULFOXIDE FOR USE IN THE TREATMENT OF ACTINIC KERATOSIS” (RepoCeuticals A/S, priority 2023, published 2026).

Tests used:
[1] = not given; remark: listed apart in the source

solubility in DMSO (in DMSO) | solubility in water [1] | solubility of melatonin in DMSO (in DMSO at room temperature) [mg/mL] | SMILES
very soluble | only sparingly soluble | – | O=c1[nH]cc(F)c(=O)[nH]1 [5-FU, 5-fluoro-2,4(1H;3H)-pyrimidinedione]
– | – | ≥ 232 | COc1ccc2[nH]cc(CCNC(C)=O)c2c1 [melatonin, N-acetyl-5-methoxytryptamine]
